Measured values as given in PMC6946680, “Modulation of brain cation-Cl^− cotransport via the SPAK kinase inhibitor ZT-1a” (Nature Communications, 2020).
Several values for one entry are separate records, joined by “and”; a condition that tells them apart may be missing. Equal values may be shown once. Entries after “also recorded” stand apart in the source; their conditions may differ.

Key:
[1] = test system: mouse model of ischemic stroke (tMCAO); experiment: Infarct volume and hemispheric swelling (TTC) 24 h after tMCAO; type: in vivo
[2] = test system: mice; details: mouse, in vivo
Protocol: Post-stroke administration of Closantel in mice reduced ischemic cerebral infarction size and brain swelling in a dose-dependent manner. However, we detected Closantel toxicity in mice at higher doses (~25 mg/kg), consistent with reported adverse effects in humans, including weakness, visual impairment, and blindness[72],[73]. The in vitro nanomolar-potency pan-WNK-kinase inhibitor WNK463 was developed as an antihypertensive drug[74]. […] Although the causes of these adverse effects remain unclear, they also discouraged efficacy testing of WNK463 at higher doses.

Structure (SMILES): CC(C)(C)NC(=O)c1cncn1C1CCN(c2ccc(-c3nnc(C(F)(F)F)o3)cn2)CC1 [WNK463]
- Infarct volume (mm3) ([1]; Fig 9b, group WNK463, individual mice): 59.9 mm3 and 47.6 mm3 and 101.01 mm3 and 100.21 mm3
- Hemisphere swelling (%) ([1]; Fig 9c, group WNK463, individual mice): 22.63% and 14.43% and 26.7% and 16.53%
- infarct volume and hemispheric swelling (neuroprotection) ([1]; WNK463 2.5 mg/kg, 24 h post reperfusion, 2.5 mg/kg): reduced neither infarct volume nor hemispheric swelling; also recorded: not neuroprotective
- adverse effects in mice [2]: ataxia and breathing difficulties
